Tests used:
[1] = molecular target: T1, Adrenergic receptor alpha-1 (Rattus norvegicus, UniProt P15823+P23944+P43140); test: Binding affinity at Alpha-1 adrenergic receptor by inhibition of [3H]-prazosin binding to rat cortex
T1 sequence (P15823 whole entry): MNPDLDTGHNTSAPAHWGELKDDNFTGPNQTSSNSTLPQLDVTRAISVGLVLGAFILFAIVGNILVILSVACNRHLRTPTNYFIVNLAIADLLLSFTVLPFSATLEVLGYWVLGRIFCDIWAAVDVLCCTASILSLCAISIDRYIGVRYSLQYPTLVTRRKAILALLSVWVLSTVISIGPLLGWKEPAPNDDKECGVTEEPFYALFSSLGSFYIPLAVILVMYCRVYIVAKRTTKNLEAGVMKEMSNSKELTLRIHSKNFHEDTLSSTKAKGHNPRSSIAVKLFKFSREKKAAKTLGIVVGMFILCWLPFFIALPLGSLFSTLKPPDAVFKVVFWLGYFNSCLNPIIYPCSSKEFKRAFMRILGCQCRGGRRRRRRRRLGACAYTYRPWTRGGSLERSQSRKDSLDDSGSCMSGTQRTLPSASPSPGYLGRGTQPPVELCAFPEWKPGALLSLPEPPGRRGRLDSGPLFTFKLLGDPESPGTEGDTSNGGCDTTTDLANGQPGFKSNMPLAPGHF
T1 sequence (P23944 whole entry): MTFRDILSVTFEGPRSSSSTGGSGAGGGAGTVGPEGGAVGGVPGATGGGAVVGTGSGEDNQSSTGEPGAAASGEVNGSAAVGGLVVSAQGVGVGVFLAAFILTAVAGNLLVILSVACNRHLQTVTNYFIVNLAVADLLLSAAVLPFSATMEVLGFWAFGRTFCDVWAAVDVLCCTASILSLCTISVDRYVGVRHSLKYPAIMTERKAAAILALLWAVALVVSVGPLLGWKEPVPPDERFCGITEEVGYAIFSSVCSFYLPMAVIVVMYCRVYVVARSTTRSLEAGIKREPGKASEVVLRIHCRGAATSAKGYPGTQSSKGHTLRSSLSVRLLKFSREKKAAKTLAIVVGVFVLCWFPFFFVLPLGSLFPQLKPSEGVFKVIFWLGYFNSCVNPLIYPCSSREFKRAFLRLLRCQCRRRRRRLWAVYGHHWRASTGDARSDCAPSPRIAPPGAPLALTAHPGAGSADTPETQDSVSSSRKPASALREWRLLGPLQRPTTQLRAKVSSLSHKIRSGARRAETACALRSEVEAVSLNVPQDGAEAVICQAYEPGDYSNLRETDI
T1 sequence (P43140 whole entry): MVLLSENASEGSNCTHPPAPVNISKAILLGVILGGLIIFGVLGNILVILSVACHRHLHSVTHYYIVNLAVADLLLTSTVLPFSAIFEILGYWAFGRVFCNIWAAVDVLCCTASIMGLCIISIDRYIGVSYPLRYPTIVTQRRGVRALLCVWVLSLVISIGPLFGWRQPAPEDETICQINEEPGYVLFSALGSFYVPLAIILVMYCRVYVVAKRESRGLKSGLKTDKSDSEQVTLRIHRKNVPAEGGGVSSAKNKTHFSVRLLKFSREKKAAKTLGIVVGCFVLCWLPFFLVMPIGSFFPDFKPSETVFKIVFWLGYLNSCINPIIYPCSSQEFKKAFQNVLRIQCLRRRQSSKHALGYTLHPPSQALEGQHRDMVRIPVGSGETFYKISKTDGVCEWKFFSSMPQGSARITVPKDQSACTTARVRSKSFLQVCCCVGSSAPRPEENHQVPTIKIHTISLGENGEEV

[2] = molecular target: T2, 5-hydroxytryptamine receptor 1A (Homo sapiens, UniProt P08908); test: Binding affinity at human 5-hydroxytryptamine 1A receptor by inhibition of [3H]8-OH-DPAT binding in Chinese hamster ovary cell line; format: cell-based
T2 sequence (P08908 whole entry): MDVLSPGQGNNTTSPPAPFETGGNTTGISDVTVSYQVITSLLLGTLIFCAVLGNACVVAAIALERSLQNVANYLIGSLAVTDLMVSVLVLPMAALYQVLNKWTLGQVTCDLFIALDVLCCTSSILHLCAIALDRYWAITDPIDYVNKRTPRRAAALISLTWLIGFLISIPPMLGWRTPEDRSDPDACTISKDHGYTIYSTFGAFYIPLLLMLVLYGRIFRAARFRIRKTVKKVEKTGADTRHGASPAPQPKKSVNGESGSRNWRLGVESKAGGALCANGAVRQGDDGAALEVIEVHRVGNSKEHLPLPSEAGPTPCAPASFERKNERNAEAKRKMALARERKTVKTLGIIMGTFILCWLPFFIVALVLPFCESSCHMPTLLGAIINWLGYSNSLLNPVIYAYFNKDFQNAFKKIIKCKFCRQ

[3] = In vitro oral metabolic bioavailability after incubation with hepatic microsomes; format: ADME, Liver; conditions: read-out: MF
[4] = Selectivity ratio towards Alpha-1 adrenergic receptor to human 5-hydroxytryptamine 1A receptor
[5] = molecular target: T3, 5-hydroxytryptamine receptor 1A (Rattus norvegicus) (UniProt P19327); test: Antagonistic activity at postsynaptic 5-hydroxytryptamine 1A receptor was measured by its ability to inhibit hypothermia elicited by s.c. administration of 8-OH-DPAT in rat;ranges from (0.37-4.27); format: functional, organism-based
T3 sequence (whole entry): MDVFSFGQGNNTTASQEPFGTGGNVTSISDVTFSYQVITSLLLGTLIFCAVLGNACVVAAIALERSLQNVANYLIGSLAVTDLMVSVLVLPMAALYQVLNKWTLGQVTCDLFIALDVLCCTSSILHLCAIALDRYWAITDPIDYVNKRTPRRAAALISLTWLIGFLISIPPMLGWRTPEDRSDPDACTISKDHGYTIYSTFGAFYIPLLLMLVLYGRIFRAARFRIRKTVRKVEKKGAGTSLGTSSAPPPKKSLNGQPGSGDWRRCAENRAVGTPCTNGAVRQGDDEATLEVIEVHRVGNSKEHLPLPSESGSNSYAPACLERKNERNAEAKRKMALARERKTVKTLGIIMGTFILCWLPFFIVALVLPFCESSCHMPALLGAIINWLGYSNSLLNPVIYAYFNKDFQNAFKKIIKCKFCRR

[6] = molecular target: T3, 5-hydroxytryptamine receptor 1A (Rattus norvegicus); test: Antagonistic activity at postsynaptic 5-hydroxytryptamine 1A receptor was measured by its ability to inhibit hypothermia elicited by s.c. administration of 8-OH-DPAT in rat;ranges from (0.80-5.80); format: functional, organism-based
[7] = molecular target: T3, 5-hydroxytryptamine receptor 1A (Rattus norvegicus); test: Antagonistic activity at postsynaptic 5-hydroxytryptamine 1A receptor was measured by its ability to inhibit hypothermia elicited by s.c. administration of 8-OH-DPAT in rat;ranges from (1.50-16.5); format: functional, organism-based
[8] = molecular target: T3, 5-hydroxytryptamine receptor 1A (Rattus norvegicus); test: Antagonistic activity at postsynaptic 5-hydroxytryptamine 1A receptor was measured by its ability to inhibit hypothermia elicited by s.c. administration of 8-OH-DPAT in rat;ranges from (0.40-2.70); format: functional, organism-based

Row | Structure (SMILES) | Log Ki [1] | Ki [2] | Ratio [4] | other results
1 | COc1ccc2c(c1)C[C@@H](N1CCN(c3cccc4c3OCCO4)CC1)[C@@H]2O (racemic) | -6.55 | 1.26 nM |  | Fh [3]: 80%
2 | O[C@@H]1c2ccc(F)cc2C[C@H]1N1CCN(c2cccc3c2OCCO3)CC1 (racemic) | -6.15 | 1.26 nM |  | Fh [3]: 65%
3 | O[C@@H]1c2ccc(F)cc2C[C@H]1N1CCC(c2cc(F)cc3c2OCCC3)CC1 (relative stereo) | -7.26 | 4.9 nM | 11 | 
4 | O[C@@H]1c2ccc(F)cc2C[C@H]1N1CCN(c2cc(Cl)cc3c2OCCO3)CC1 (relative stereo) | -6.07 | 1.32 nM | 645 | 
5 | COc1ccc2c(c1)[C@@H](O)[C@H](N1CCN(c3cccc4c3OCCO4)CC1)C2 (relative stereo) | -6.57 | 0.447 nM | 603 | ID50 [5]: 1.25 mg/kg; Fh [3]: 62%
6 | O[C@@H]1c2ccc(F)cc2C[C@H]1N1CCN(c2cccc3c2OCCC3)CC1 (relative stereo) | -6.67 | 1.29 nM | 166 | 
7 | COc1ccc2c(c1)C[C@@H](N1CCN(c3cccc4c3OCCO4)CC1)[C@H]2O (relative stereo) |  | 23.4 nM |  | 
8 | O[C@@H]1c2ccc(F)cc2C[C@H]1N1CCC(O)(c2cccc3c2OCCO3)CC1 (relative stereo) | -6.31 | > 1000 nM | < 1 | 
9 | O[C@H]1c2ccc(F)cc2C[C@H]1N1CCN(c2cccc3c2OCCC3)CC1 (relative stereo) |  | 316 nM |  | 
10 | Cc1ccc2c(c1)[C@@H](O)[C@H](N1CCC(c3cccc4c3OCCO4)CC1)C2 (relative stereo) | -7.44 | 0.55 nM | 66 | 
11 | OCC1COc2c(cc(Cl)cc2N2CCN([C@@H]3Cc4cc(F)ccc4[C@H]3O)CC2)O1 (relative stereo) | -6.17 | 10.5 nM | 64 | 
12 | O[C@@H]1c2ccc(F)cc2C[C@H]1N1CCC(c2cccc3c2OCCC3)CC1 (relative stereo) | -7.64 | 0.302 nM | 76 | 
13 | O[C@@H]1c2cc(F)ccc2C[C@H]1N1CCC(c2cccc3c2OCCO3)CC1 (relative stereo) | -7.1 | 0.776 nM | 102 | ID50 [6]: 2.1 mg/kg; Fh [3]: 8%
14 | COc1ccc2c(c1)[C@H](O)[C@H](N1CCN(c3cccc4c3OCCO4)CC1)C2 (relative stereo) |  | 17.4 nM |  | 
15 | O[C@@H]1c2ccc(F)cc2C[C@H]1N1CCC(c2cccc3c2OCC3)CC1 (relative stereo) | -7.34 | 1.51 nM | 30 | 
16 | O[C@@H]1c2cc(F)c(F)cc2C[C@H]1N1CCC(c2cccc3c2OCCO3)CC1 (relative stereo) | -7.08 | 2.19 nM | 38 | ID50 [7]: 5 mg/kg; Fh [3]: 5%
17 | O[C@@H]1c2ccc(F)cc2C[C@H]1N1CC=C(c2cccc3c2SCCC3)CC1 (relative stereo) |  | 11.7 nM |  | 
18 | O[C@@H]1c2cc(F)ccc2C[C@H]1N1CCN(c2cccc3c2OCCO3)CC1 (relative stereo) | -6.13 | 1.32 nM | 561 | ID50 [8]: 1 mg/kg; Fh [3]: 46%
19 | O[C@H]1c2ccc(F)cc2C[C@H]1N1CCC(c2cccc3c2OCCO3)CC1 (relative stereo) |  | 26.9 nM |  | 
20 | O[C@H]1c2ccc(F)cc2C[C@H]1N1CCC(O)(c2cccc3c2OCCO3)CC1 (relative stereo) |  | > 1000 nM |  | 
21 | COc1cc2c(cc1OC)[C@@H](O)[C@H](N1CCC(c3cccc4c3OCCO4)CC1)C2 (relative stereo) | -6.9 | 79.4 nM | 1.5 | 
22 | O[C@H]1c2ccccc2C[C@H]1N1CC=C(c2cccc3c2OCCO3)CC1 (relative stereo) |  | 22.9 nM |  | 
23 | O[C@@H]1c2ccc(F)cc2C[C@H]1N1CCC(c2cccc3c2OCCO3)CC1 (relative stereo) | -7.19 | 0.437 nM | 148 | Fh [3]: 7%
24 | Cc1ccc2c(c1)C[C@@H](N1CCC(c3cccc4c3OCCO4)CC1)[C@@H]2O (relative stereo) | -7.77 | 1.17 nM | 14.5 | 
25 | COc1ccc2c(c1)C[C@@H](N1CCN(c3cccc4c3OCCO4)CC1)[C@@H]2O (stereo in doubt; (+)) |  | 6.61 nM |  | 
26 | O[C@@H]1c2ccc(F)cc2C[C@H]1N1CCN(c2cccc3c2OCCO3)CC1 (stereo in doubt; (+)) |  | 0.631 nM |  | 
27 | COc1ccc2c(c1)C[C@@H](N1CCN(c3cccc4c3OCCO4)CC1)[C@@H]2O (stereo in doubt; (-)) |  | 1.02 nM |  | 
28 | O[C@@H]1c2ccc(F)cc2C[C@H]1N1CCN(c2cccc3c2OCCO3)CC1 (stereo in doubt; (-)) |  | 2.04 nM |  | 

Source: ChEMBL document CHEMBL1135394, “Improvement in the selectivity and metabolic stability of the serotonin 5-HT(1A) ligand, S 15535: a series of cis- and trans-2-(arylcycloalkylamine) 1-indanols” (J Med Chem, 2002)
